Ends that are not written are not given here.
What was measured:
P. aeruginosa = P. aeruginosa (H187); Table 6
Protocol: FICs are performed by checkerboard titrations of peptides in one dimension of a microtiter plate, and of antibiotics in the other dimension, for example. The FIC is calculated by looking at the impact of one antibiotic on the MIC of the other and vice versa. […] Preferably, an FIC of less than 0.5 is obtained for synergism. As used herein, FIC can be determined as follows: [formula]
(§1) Briefly, cells were grown overnight at 37° C. in LB-S (Luria broth without any salt supplement) and diluted one in 10,000 in the same medium to give concentrations of about 10^4 to 10^5 CFU/ml. The broth dilutions were set up in a 96 well microtiter plate by putting 200 μl of LB-S containing the initial concentration of antibiotic or compound in column 1 and 100 μl of the same medium in columns 2-12. The compounds were diluted by taking 100 μl of broth from column 1 and mixing it with column 2, resulting in a one in two dilution. This was continued to column 10. Finally, 10 μl of bacteria were pipetted into columns 1-11, and the plates incubated overnight at 37° C. The next day the plates were scored for growth in the wells, and the MIC determined.

Red Blood Cells = assay: Red blood cell lysis; format: cell-based; settings: concentration lysing Red Blood Cells
E. coli = assay: MIC, broth dilution in LB-S; format: cell-based; settings: E. coli (UB 1005); Table 6
Protocol: The biological activity of the peptides can be determined by standard methods known to those of skill in the art, such as “minimal inhibitory concentration (MIC)” assay described in the present examples, whereby the lowest concentration at which no change in OD is observed for a given period of time is recorded as MIC. Alternatively, “fractional inhibitory concentration (FIC)” is also useful for determination of synergy between the peptides of the invention, or the peptides in combination with known antibiotics. FICs are performed by checkerboard titrations of peptides in one dimension of a microtiter plate, and of antibiotics in the other dimension, for example. The FIC is calculated by looking at the impact of one antibiotic on the MIC of the other and vice versa. […] Preferably, an FIC of less than 0.5 is obtained for synergism. As used herein, FIC can be determined as follows: [formula]
as §1

Compound | MIC P. aeruginosa (H187) (P. aeruginosa) [µg/mL] | RBC Lysis (Red Blood Cells) [µg/mL] | MIC E. coli (UB 1005) (E. coli) [µg/mL]
CC[C@H](C)[C@H](NC(=O)[C@H](CC(C)C)NC(=O)[C@H](C)NC(=O)[C@@H]1CCCN1C(=O)[C@H](CC(C)C)NC(=O)CNC(=O)[C@@H](NC(=O)[C@@H](NC(=O)[C@H](CC(C)C)NC(=O)[C@@H](NC(=O)[C@H](CCCCN)NC(=O)[C@H](CCCCN)NC(=O)[C@@H](NC(=O)[C@H](C)NC(=O)[C@@H](NC(=O)[C@@H](NC(=O)[C@H](CC(C)C)NC(=O)[C@H](CCCCN)NC(=O)[C@H](CCCCN)NC(=O)[C@@H](NC(=O)[C@H](Cc1ccccc1)NC(=O)[C@H](CCC(=O)O)NC(=O)[C@H](CCCCN)NC(=O)[C@H](Cc1c[nH]c2ccccc12)NC(=O)[C@@H](N)CCCCN)[C@@H](C)CC)[C@@H](C)O)[C@@H](C)O)C(C)C)C(C)C)[C@@H](C)O)[C@@H](C)O)C(=O)N[C@@H](CO)C(=O)O [compound 492] | 4.8 | >55 | 2.4
KWKSFIKNLEKVLKPGGLLSNIVTSL [compound 490] | 8 | >55 | 1
KWKSFIKNLEKVLKKGPILANLVSIV [compound 491] | 8 | >55 | 2
